This is an account of results in PMC4340402 (The Journal of Biological Chemistry, 2014).

Holding throughout (assay): two-electrode voltage clamp, Xenopus oocytes
One test relates to T1, X1-CδX4.
T1 construct: gene P2RX1; hP2X1 with residues 216-220 replaced by the corresponding rP2X4 segment; Xenopus oocytes
It is filed as cell-based, Homo sapiens; Rattus norvegicus. To be noted: agonist; 3 s application; ND96 with Ba2+, -60 mV. From the text: two-electrode voltage clamp, Xenopus oocytes on X1-CδX4

Another test has as its system T2, X1-DX4.
T2 construct: gene P2RX1; hP2X1 with residues 262-330 (hP2X1 numbering) replaced by the corresponding rP2X4 segment; Xenopus oocytes
It is filed as cell-based, Homo sapiens; Rattus norvegicus. To be noted: ND96 with Ba2+, -60 mV. An excerpt: two-electrode voltage clamp, Xenopus oocytes on X1-DX4

In the next test the test system is T3, X1-AX4.
T3 construct: gene P2RX1; hP2X1 with residues 63-132 replaced by the corresponding rP2X4 segment (63-133); Xenopus oocytes
The test is classed as cell-based, Homo sapiens; Rattus norvegicus. Particulars: ND96 with Ba2+, -60 mV. An excerpt:
two-electrode voltage clamp, Xenopus oocytes on X1-AX4

In a further test the test system is T4, X1-CγX4.
T4 construct: gene P2RX1; hP2X1 with residues 210-215 replaced by the corresponding rP2X4 segment; Xenopus oocytes
It is filed as cell-based, Homo sapiens; Rattus norvegicus. Particulars: agonist; 3 s application; ND96 with Ba2+, -60 mV. From the text: two-electrode voltage clamp, Xenopus oocytes on X1-CγX4

The subject of another test is T5, X1-CβX4.
T5 construct: gene P2RX1; hP2X1 with residues 232-261 replaced by the corresponding rP2X4 segment; Xenopus oocytes
It is filed as cell-based, Homo sapiens; Rattus norvegicus. Particulars: agonist; 3 s application; ND96 with Ba2+, -60 mV. An excerpt:
two-electrode voltage clamp, Xenopus oocytes on X1-CβX4

For the next test, the system named is T6, X1-CαX4.
T6 construct: gene P2RX1; text says 184-209) replaced by the corresponding rP2X4 segment; Xenopus oocytes
It is filed as cell-based, Homo sapiens; Rattus norvegicus. Particulars: agonist; 3 s application; ND96 with Ba2+, -60 mV. From the text: two-electrode voltage clamp, Xenopus oocytes on X1-CαX4

The subject of a further test is T7, X1-CX4.
T7 construct: gene P2RX1; hP2X1 with residues 185-261 (hP2X1 numbering) replaced by the corresponding rP2X4 segment; Xenopus oocytes
It is filed as cell-based, Homo sapiens; Rattus norvegicus. To be noted: ND96 with Ba2+, -60 mV. From the text: two-electrode voltage clamp, Xenopus oocytes on X1-CX4

For test [1], the system named is T8, X1-BX4.
T8 construct: gene P2RX1; hP2X1 with residues 133-184 (hP2X1 numbering) replaced by the corresponding rP2X4 segment; Xenopus oocytes
The test is classed as cell-based, Homo sapiens; Rattus norvegicus. To be noted: ND96 with Ba2+, -60 mV. From the text:
two-electrode voltage clamp, Xenopus oocytes on X1-BX4

In a further test the target is T9, hP2X1 receptor (Homo sapiens, UniProt P51575).
T9 construct: gene P2RX1; full-length cDNA cloned from bladder; homotrimer; cRNA expressed in Xenopus laevis oocytes
T9 sequence (P51575 1-399): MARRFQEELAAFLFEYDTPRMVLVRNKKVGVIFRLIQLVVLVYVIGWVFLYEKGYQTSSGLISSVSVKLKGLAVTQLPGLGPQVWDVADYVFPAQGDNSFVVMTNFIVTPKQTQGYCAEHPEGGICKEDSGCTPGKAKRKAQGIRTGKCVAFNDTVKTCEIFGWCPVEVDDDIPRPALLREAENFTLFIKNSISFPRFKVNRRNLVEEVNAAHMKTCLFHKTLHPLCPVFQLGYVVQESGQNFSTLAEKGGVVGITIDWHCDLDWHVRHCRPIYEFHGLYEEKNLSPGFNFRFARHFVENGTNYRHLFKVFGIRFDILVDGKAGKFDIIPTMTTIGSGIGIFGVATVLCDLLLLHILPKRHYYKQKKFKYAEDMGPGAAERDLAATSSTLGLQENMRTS
It is filed as cell-based. From the text:
two-electrode voltage clamp, Xenopus oocytes on hP2X1 receptor

Test [2] addresses T10, rP2X4 receptor (Rattus norvegicus, UniProt P51577, Y378A).
T10 construct: gene P2rx4; homotrimer; cRNA expressed in Xenopus laevis oocytes
T10 sequence (P51577 1-388 Y378A): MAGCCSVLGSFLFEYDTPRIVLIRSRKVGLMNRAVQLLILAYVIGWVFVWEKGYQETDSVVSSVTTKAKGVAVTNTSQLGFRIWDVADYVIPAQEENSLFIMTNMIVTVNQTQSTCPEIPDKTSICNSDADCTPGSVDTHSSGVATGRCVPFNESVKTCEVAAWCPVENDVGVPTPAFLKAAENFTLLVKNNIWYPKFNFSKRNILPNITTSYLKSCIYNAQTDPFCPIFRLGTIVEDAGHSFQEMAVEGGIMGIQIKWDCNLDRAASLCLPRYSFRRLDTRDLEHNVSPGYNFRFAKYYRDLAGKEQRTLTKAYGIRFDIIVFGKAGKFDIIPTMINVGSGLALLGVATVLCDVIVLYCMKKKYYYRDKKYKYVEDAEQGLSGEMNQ
It is filed as cell-based. From the text: two-electrode voltage clamp, Xenopus oocytes on rP2X4 receptor

Another test relates to T11, X1-CζX4.
T11 construct: gene P2RX1; hP2X1 with residues 227-231 replaced by the corresponding rP2X4 segment; Xenopus oocytes
The test is classed as cell-based, Homo sapiens; Rattus norvegicus. To be noted: agonist; 3 s application; ND96 with Ba2+, -60 mV. An excerpt: two-electrode voltage clamp, Xenopus oocytes on X1-CζX4

Test [3] relates to T8, X1-BX4. The test is classed as cell-based, Homo sapiens; Rattus norvegicus. Particulars: agonist; 3 s application; ND96 with Ba2+, -60 mV.
A further test has as its system T12, X1-CϵX4.
T12 construct: gene P2RX1; hP2X1 with residues 221-226 replaced by the corresponding rP2X4 segment; Xenopus oocytes
The test is classed as cell-based, Homo sapiens; Rattus norvegicus. To be noted: agonist; 3 s application; ND96 with Ba2+, -60 mV. From the text:
two-electrode voltage clamp, Xenopus oocytes on X1-CϵX4

In test [4] the test system is T8, X1-BX4. It is filed as cell-based, Homo sapiens; Rattus norvegicus. To be noted: antagonist at EC90 of ATP; 5 min preincubation; ND96 with Ba2+, -60 mV.
The target of test [5] is T13, rP2X4 receptor (Rattus norvegicus, UniProt P51577, D138K/H140K/S136K/T139R/Y378A).
T13 construct: gene P2rx4; homotrimer; cRNA expressed in Xenopus laevis oocytes
T13 sequence (P51577 1-388 S136K/D138K/T139R/H140K/Y378A): T10 sequence (P51577 1-388 Y378A) with S136K, D138K, T139R, H140K
It is filed as cell-based. Particulars: read-out: % of control at 1 μM.

[6] abbreviates: read-out: ATP / pEC50 (converted).
Where [7] appears, read: antagonist at EC90 of ATP, 5 min preincubation.

Residue numbers refer to the chain shown, from its start.

On to `Nc1ncnc2c1ncn2[C@@H]1O[C@H](COP(=O)(O)OP(=O)(O)OP(=O)(O)O)[C@@H](O)[C@H]1O` [ATP], for which the “ATP / pEC50” value in the test with X1-CδX4 worked out at 5.21 ± 0.04; with X1-DX4 (agonist, 3 s application), 5.08 ± 0.04; in the test with X1-AX4 (agonist, 3 s application), 4.43 ± 0.08; in the test with X1-CγX4, 5.71 ± 0.06; in the test with X1-CβX4, 5.30 ± 0.06; in the test with X1-CαX4, 5.34 ± 0.05. The “ATP / pEC50” value amounted to 6.17 ± 0.13 in the test with X1-CX4 (agonist, 3 s application); 4.28 ± 0.04 with X1-BX4 [1] (agonist, 3 s application); 5.54 ± 0.06 in the test with X1-CζX4; 5.68 ± 0.06 in the test on X1-CϵX4. Moreover, the results for the EC50 at hP2X1 receptor (setting [6]) and on rP2X4 receptor [2] (setting [6]) were 490 nM and 4070 nM, respectively. In addition, in the test on X1-BX4 [3], the pEC50 (in general, −log10 of the EC50, conventionally taken in molar units) is recorded as 3.6 ± 0.1.

With `O=C(Nc1cc(C(=O)Nc2ccc(S(=O)(=O)O)cc2S(=O)(=O)O)cc(C(=O)Nc2ccc(S(=O)(=O)O)cc2S(=O)(=O)O)c1)Nc1cc(C(=O)Nc2ccc(S(=O)(=O)O)cc2S(=O)(=O)O)cc(C(=O)Nc2ccc(S(=O)(=O)O)cc2S(=O)(=O)O)c1` [NF449, 4,4′,4″,4‴-(carbonylbis(imino-5,1,3-benzenetriylbis(carbonylimino)))tetrakisbenzene-1,3-disulfonic acid], the pIC50 – broadly, the negative decadic logarithm of the IC50, by convention in mol/L – with X1-BX4 [4] is listed as 9.28 ± 0.05. In addition, the IC50 on rP2X4 receptor [2] was greater than 1000 nM. The remaining activity at 1 µM at rP2X4 receptor [5] was 104 ± 5.3%.

As to `Cc1nc(N=Nc2ccc(S(=O)(=O)O)cc2S(=O)(=O)O)c(COP(=O)(O)O)c(C=O)c1O` [PPADS, pyridoxal-phosphate-6-azophenyl-2,4-disulfonate], the “PPADS / pIC50” value is 6.95 ± 0.07 in the test with X1-DX4 (setting [7]), 6.18 ± 0.02 in the test on X1-AX4 (setting [7]), 5.47 ± 0.12 with X1-CX4 (setting [7]) and 5.24 ± 0.12 in the test on X1-BX4 [1] (setting [7]). Further, the IC50 at hP2X1 receptor (read-out: PPADS / pIC50 (converted)) is 1580 nM; at rP2X4 receptor [2] it was greater than 100000 nM.

`Cc1ccc(C(=O)Nc2ccc(S(=O)(=O)O)c3cc(S(=O)(=O)O)cc(S(=O)(=O)O)c23)cc1NC(=O)c1cccc(NC(=O)Nc2cccc(C(=O)Nc3cc(C(=O)Nc4ccc(S(=O)(=O)O)c5cc(S(=O)(=O)O)cc(S(=O)(=O)O)c45)ccc3C)c2)c1` [Suramin]: at rP2X4 receptor [2], the IC50 is greater than 100000 nM.
